Earlier results on 1 molecule are cited in US20110294763A1, “TRANSDERMAL DELIVERY OF DICOLFENAC, CARBAMAZEPINE AND BENZYDAMINE” (priority 2009, published 2011).

Turning to `CN(C)CCCOc1nn(Cc2ccccc2)c2ccccc12` [Benzydamine base], the Solubility in water result is “insoluble”.
